In US20250243174A1, “ANTITUMORAL COMPOUNDS” (PHARMA MAR, S.A., priority 2021, published 2025):
Where two headings read alike, the source gives them in different places.

How the values were obtained:
[1] = MTD (Maximum Tolerated Dose) determination; settings: Athymic Nude-Fox1 nu/nu, mouse, in vivo; iv, single dose; female athymic nude mice
Description: (§1) Female Athymic Nude-Fox1 nu/nu mice (Envigo) were utilized for all experiments. Animals (N=10/cage) were housed in individually ventilated cages (Sealsafe Plus®, Techniplast S.P.A.), on a 12-hour light-dark cycle at 21-23° C. and 40-60% humidity. Mice were allowed free access to irradiated standard rodent diet (Tecklad 2914C) and sterilized water. Animals were acclimated for five days prior to being individually tattoo-identified. Animal protocols were reviewed and approved according to the regional Institutional Animal Care and Use Committees.
(§2) Mice were randomly allocated into experimental groups and intravenously administered, once for the MTD (Maximum Tolerated Dose) determination or one administration a week during three consecutive weeks, for the MTMD (Maximum Tolerated Multiple Dose) determination study. The animals were administered with white formulation or with compound dissolved in the experimental formulation at different concentrations. The volume administered was always 10 mL/kg. Once administered, animals were monitored for clinical signs of systemic toxicity, changes in body weight and mortality up to 14 days after the administration.

[2] = MTMD (Maximum Tolerated Multiple Dose) determination; type: in vivo; settings: iv, Q7dx3; female athymic nude mice
Description: as §1, §2

MDA-MB-231 = experiment: SRB colorimetric cytotoxicity assay, MDA-MB-231; type: cell-based; settings: Homo sapiens, read-out: GI50 (M) MDA-MB-231
Text: (§3) The aim of this assay is to evaluate the in vitro cytostatic (ability to delay or arrest tumor cell growth) or cytotoxic (ability to kill tumor cells) activity of the samples being tested.
(§4) A colorimetric assay, using sulforhodamine B (SRB) reaction has been adapted to provide a quantitative measurement of cell growth and viability (using the technique developed by Skehan et al., J. Natl. Cancer Inst. 1990 and following the protocol detailed in V. Vichai and K. Kirtikara (2006) Nature Protoc. 1, 1112-1116.)
(§5) This form of assay employs 96-well cell culture microplates. All the cell lines used in this study were obtained from the American Type Culture Collection (ATCC), unless otherwise indicated, and derive from different types of human cancer.
(§6) Cells were maintained in Dulbecco's Modified Eagle Medium (DMEM) (for A549, HT-29 and MDA-MB-231) or RPMI (for PSN-1) supplemented with 10% Fetal Bovine Serum (FBS), 2 mM L-glutamine, 100 U/mL penicillin and 100 U/mL streptomycin at 37° C., 5% CO2 and 98% humidity. For the experiments, cells were harvested from subconfluent cultures using trypsinization and resuspended in fresh medium before counting and plating.
(§7) Cells were seeded in 96 well microtiter plates, at 5×10^3 cells per well in aliquots of 150 μL, and allowed to attach to the plate surface for 18 hours (overnight) in drug free medium. After that, one control (untreated) plate of each cell line was fixed (as described below) and used for time zero reference value. Culture plates were then treated with test compounds (50 μL aliquots of 4× concentrated compound stock solutions made in complete culture medium) using ten serial dilutions (concentrations ranging from […]) and triplicate cultures (final concentration of DMSO being 1%). After 72 hours treatment, the antitumor effect was measured by using the SRB methodology: Briefly, cells were washed twice with PBS, fixed for 15 min in 1% glutaraldehyde solution at room temperature, rinsed twice in PBS, and stained in 0.4% SRB solution for 30 min at room temperature. Cells were then rinsed several times with 1% acetic acid solution and air-dried at room temperature. SRB was then extracted in 10 mM trizma base solution and the absorbance measured in an automated spectrophotometric plate reader at 490 nm. Effects on cell growth and survival were estimated by applying the NCI algorithm (Boyd M R and Paull K D. Drug Dev. Res. 1995, 34, 91-104).
(§8) Using the mean±SD of triplicates, a dose-response curve was automatically generated using nonlinear regression analysis to a 4-parameter logistic curve. Three reference parameters were calculated (NCI algorithm) by automatic interpolation: GI50=compound concentration that produces […] cell growth inhibition, as compared to control cultures.

HT29 = experiment: SRB colorimetric cytotoxicity assay, HT29; type: cell-based; settings: Homo sapiens, read-out: GI50 (M) HT29
Text: as §3, §4, §5, §6, §7, §8

| Compound | MTD at 14 days [1] | MTMD [2] | GI50 (MDA-MB-231; MDA-MB-231, 72 h) | GI50 (HT29; HT-29, 72 h) | MTD [1] | GI50 (MDA-MB-231; MDA-MB-231, 72 hours treatment, SRB) | GI50 (HT29; HT-29, 72 hours treatment, SRB) |
| --- | --- | --- | --- | --- | --- | --- | --- |
| COC1=CC[C@@H]([C@@H](C)/C=C(C)/C=C\C=C/C(=O)N[C@H](C(=O)N/C=C\C[C@H](CC=C(C)C)OC(N)=O)C(C)(C)C)OC1=O [Compound 3] | 1 mg/kg | 1.0 mg/kg | 9.05e-11 M | 2.22e-11 M | – | – | – |
| COC1=CC[C@@H]([C@@H](C)/C=C(C)/C=C\C=C/C(=O)N[C@H](C(=O)N/C=C\C[C@H](C/C=C(\C)F)OC(N)=O)C(C)(C)C)OC1=O [Compound 2] | 2 mg/kg | 2.0 mg/kg | 4.87e-11 M | 1.31e-11 M | – | – | – |
| C/C=C\C[C@@H](C/C=C\NC(=O)[C@@H](NC(=O)\C=C/C=C\C(C)=C\[C@H](C)[C@@H]1CC=C(OC)C(=O)O1)C(C)(C)C)OC(N)=O [PM060184, reference compound] | – | 16.0 mg/kg | – | – | 16 mg/kg | 2.07e-10 M | 8.3e-11 M |
